Reference: patent US11338007B2, “Combination formulation of three antiviral compounds” (priority 2016, dated 2022)

Experiments:
[1] = Physical stability of tablets spiked with crystalline voxilaprevir Form VIII and Form X (Tables 22, 23); type: physicochemical; conditions: in tablets in the presence of pre-existing crystalline voxilaprevir
Description: For each of the impact studies, the sofosbuvir/velpatasvir SSD/voxilaprevir SSD tablets were packaged in a designated commercial packaging configuration (28-count, 100 mL HPDE bottle, coil, 1 g desiccant), and stored for 12 weeks at 25° C./60% RH and 40° C./75% RH. Tablets were also packaged in open containers (28-count, 100 mL HPDE bottle without cap) and stored for 4 weeks at 40° C./75% RH and for 1 week at 50° C./92% RH.
The impact of crystalline voxilaprevir Form VIII and Form X seeds on the physical stability and dissolution of sofosbuvir/velpatasvir SSD/voxilaprevir SSD tablets was evaluated (Tables 22 and 23). As described in Table 22, sofosbuvir/velpatasvir SSD/voxilaprevir SSD tablets Lots A and B were spiked with 5 and 10% w/w Form VIII (% w/w with respect to total voxilaprevir), respectively. Sofosbuvir/velpatasvir SSD/voxilaprevir SSD tablets Lots C and D, as described in Table 23, were spiked with 10 and 20% w/w Form X (% w/w with respect to total voxilaprevir), respectively.

[2] = Relative bioavailability of voxilaprevir amorphous free acid tablets vs Form VI tablets, fasted and fed, healthy subjects (Table 3); type: in vivo, human
Text: Accordingly, a spray dried dispersion of voxilaprevir in the amorphous free acid form was selected for incorporation into the tablet formulation.

[3] = Aqueous solubility of voxilaprevir Form VIII relative to Form VI; type: physicochemical
[4] = 100 mg tablets, healthy subjects

CC[C@@H]1[C@@H]2CN(C(=O)[C@H](C(C)(C)C)NC(=O)O[C@@H]3C[C@H]3CCCCC(F)(F)c3nc4ccc(OC)cc4nc3O2)[C@@H]1C(=O)N[C@]1(C(=O)NS(=O)(=O)C2(C)CC2)C[C@H]1C(F)F [Amorphous Free Acid, voxilaprevir]
tendency to crystallize [1]: no tendency to crystallize | higher Cmax compared to Form VI tablets (2×50 mg) [2, 4]: ~43% | higher exposure (AUC) compared to Form VI tablets (2×50 mg) [2, 4]: approximately 9% | Cmax ([2]; single dose 100 mg, healthy subjects, fed (with moderate food)): 44.2 ng/mL | Geometric Least Square Ratio Amorphous Free Acid/Form VI GMR, AUCinf ([2]; single dose, fasted): 1.09 | Geometric Least Square Ratio Amorphous Free Acid/Form VI GMR, Cmax ([2]; single dose, fasted): 1.43

CC[C@@H]1[C@@H]2CN(C(=O)[C@H](C(C)(C)C)NC(=O)O[C@@H]3C[C@H]3CCCCC(F)(F)c3nc4ccc(OC)cc4nc3O2)[C@@H]1C(=O)N[C@]1(C(=O)NS(=O)(=O)C2(C)CC2)C[C@H]1C(F)F [Form VIII, voxilaprevir]
aqueous solubility, less than that of crystalline Form VI [3]: approximately 50%
